Reference: ChEMBL document CHEMBL1153159, “Oxime derivatives related to AP18: Agonists and antagonists of the TRPA1 receptor” (Bioorg Med Chem Lett, 2010)

Legend:
Type in all cases: functional, cell-based
[1] = target: T1, Transient receptor potential cation channel subfamily A member 1 (Homo sapiens, UniProt O75762); test: Agonist activity at human TRPA1 expressed in HEK293 cells assessed as [45]Ca2+ influx by microbeta plate count
[2] = target: T1, Transient receptor potential cation channel subfamily A member 1; test: Agonist activity at human TRPA1 expressed in HEK293 cells assessed as [45]Ca2+ influx by microbeta plate count relative to cinnamaldehyde
[3] = target: T1, Transient receptor potential cation channel subfamily A member 1; test: Antagonist activity at human TRPA1 expressed in HEK293 cells assessed as [45]Ca2+ influx by microbeta plate count
[4] = target: T1, Transient receptor potential cation channel subfamily A member 1; test: Antagonist activity at human TRPA1 expressed in HEK293 cells assessed as inhibition of cinnamaldehyde-induced [45]Ca2+ influx by microbeta plate count

T1 sequence (O75762 whole entry): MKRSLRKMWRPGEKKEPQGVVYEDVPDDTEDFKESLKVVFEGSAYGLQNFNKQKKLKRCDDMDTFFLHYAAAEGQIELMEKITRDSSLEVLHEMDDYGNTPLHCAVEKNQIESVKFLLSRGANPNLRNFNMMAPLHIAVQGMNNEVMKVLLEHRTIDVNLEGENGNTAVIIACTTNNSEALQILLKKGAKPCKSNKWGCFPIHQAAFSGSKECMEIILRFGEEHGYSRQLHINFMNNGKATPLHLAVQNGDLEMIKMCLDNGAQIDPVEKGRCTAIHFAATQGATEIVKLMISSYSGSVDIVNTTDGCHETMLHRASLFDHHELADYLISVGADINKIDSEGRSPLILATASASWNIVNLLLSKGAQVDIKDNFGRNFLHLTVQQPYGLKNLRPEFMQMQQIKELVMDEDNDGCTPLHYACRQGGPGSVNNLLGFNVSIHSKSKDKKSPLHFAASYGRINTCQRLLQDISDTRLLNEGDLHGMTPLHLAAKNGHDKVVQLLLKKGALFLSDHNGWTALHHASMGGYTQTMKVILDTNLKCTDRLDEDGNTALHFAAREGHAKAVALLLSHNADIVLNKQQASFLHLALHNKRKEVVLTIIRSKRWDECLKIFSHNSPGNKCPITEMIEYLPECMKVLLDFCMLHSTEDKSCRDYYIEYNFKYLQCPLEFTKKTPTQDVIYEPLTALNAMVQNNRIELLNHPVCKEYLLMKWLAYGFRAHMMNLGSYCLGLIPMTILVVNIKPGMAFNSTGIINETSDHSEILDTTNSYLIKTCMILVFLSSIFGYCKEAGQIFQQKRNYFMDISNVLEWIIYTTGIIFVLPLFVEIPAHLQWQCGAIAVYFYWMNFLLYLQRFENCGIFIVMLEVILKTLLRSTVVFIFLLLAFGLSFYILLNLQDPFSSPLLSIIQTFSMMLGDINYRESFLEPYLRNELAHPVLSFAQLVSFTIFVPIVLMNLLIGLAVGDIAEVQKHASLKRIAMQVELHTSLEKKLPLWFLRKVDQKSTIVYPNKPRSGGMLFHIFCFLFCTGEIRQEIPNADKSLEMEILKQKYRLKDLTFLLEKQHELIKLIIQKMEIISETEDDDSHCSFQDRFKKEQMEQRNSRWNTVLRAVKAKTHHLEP

Q: With `CC(/C=C/c1ccc(Cl)cc1)=N\O` as the compound, how does the EC50 [1] read?
A: 27.6 µM

Q: What about the Efficacy [2] of the same compound?
A: 0.66

Q: With `CC(=C\c1cccc(C)c1)/C(C)=N/O` as the compound, how does the EC50 [1] read?
A: 14.4 µM

Q: What about the Efficacy [2] of the same compound?
A: 0.84

Q: With `CC(/C=C/c1ccccc1)=N\O` as the compound, how does the EC50 [1] read?
A: 96.6 µM

Q: And the Efficacy [2]?
A: 0.27

Q: How did the Efficacy [2] turn out when `NC(/C=C/c1cc(C(F)(F)F)cc(C(F)(F)F)c1)=N\O` was run?
A: < 0.1

Q: Which results are given for `CC(/C=C/c1ccc2c(c1)OCO2)=N\O`?
A: EC50 [1]: 11.5 µM; Efficacy [2]: 0.54

Q: With `CC(/C=N/O)=C\c1ccccc1` as the compound, how does the EC50 [1] read?
A: 69.4 µM

Q: And the Efficacy [2]?
A: 0.18

Q: For `COc1ccc(/C=C(C)/C(C)=N/O)cc1`, which EC50 [1] is on record?
A: 46.1 µM

Q: And the Efficacy [2]?
A: 0.23

Q: Which EC50 [1] does the source give for `O=C/C=C/c1ccccc1` [CINNAMALDEHYDE] here?
A: 51.4 µM

Q: How did the Efficacy [2] turn out when `CC(=C\c1ccccc1Cl)/C(C)=N/O` was run?
A: 0

Q: For `CC(/C=C/c1cccc(Cl)c1)=N/O`, which Efficacy [2] is on record?
A: 0.21

Q: What does the source list for `O/N=C\C=C\c1ccc(Cl)cc1`?
A: EC50 [1]: 9.4 µM; Efficacy [2]: 0.85

Q: Which EC50 [1] does the source give for `CC(/C=C/c1cccc(Cl)c1)=N\O` here?
A: 63.1 µM

Q: What about the Efficacy [2] of the same compound?
A: 0.85

Q: For `O/N=C/C=C/c1ccc(C(F)(F)F)cc1`, which Efficacy [2] is on record?
A: 0.13

Q: For `CC(=C\c1ccccc1)/C(C)=N/O`, which IC50 [3] is on record?
A: 2.7 µM

Q: And the Efficacy [2]?
A: 0

Q: What about the KB [4] of the same compound?
A: 1.91 µM

Q: With `O/N=C/C=C/c1ccc(Cl)cc1` as the compound, how does the Efficacy [2] read?
A: 0.46

Q: How did the IC50 [3] turn out when `CC(=C\c1ccc(Cl)cc1)/C(C)=N/O` [AP18 5] was run?
A: 2.8 µM

Q: And the Efficacy [2]?
A: 0

Q: And the KB [4]?
A: 1.26 µM

Q: Which Efficacy [2] does the source give for `CC(/C=N/O)=C\c1ccc(C(C)(C)C)cc1` here?
A: 0.15

Q: With `O/N=C/C=C/c1ccccc1` as the compound, how does the Efficacy [2] read?
A: 0

Q: For `CC(=C\c1cccc([N+](=O)[O-])c1)/C(C)=N/O`, which Efficacy [2] is on record?
A: 0

Q: For `CN(C)c1ccc(/C=C/C=N/O)cc1`, which EC50 [1] is on record?
A: 15.9 µM

Q: What about the Efficacy [2] of the same compound?
A: 0.87
